{
  "source": "patent US6831104B2",
  "about": "“Insect pest eradication system” (priority 2000, dated 2004)",
  "key": {"[1]": {"system": "live fire ant colony", "assay": "Test 8: ethanol and water; trans-dichloroethylene/ethanol solution then Diazinon solution", "set-up": "species or system Red Fire Ant", "conditions": "in vivo", "source_text": "In eighth and ninth tests, the method of the seventh test was duplicated using two other alcohols, namely ethanol and isopropanol."}, "[2]": {"system": "live fire ant colony", "conditions": "in vivo"}, "[3]": {"system": "active fire ant colonies", "assay": "Test 7: methanol alone; trans-dichloroethylene/methanol solution then Diazinon solution", "type": "in vivo, Red Fire Ant", "conditions": "for fire ant activity upon surface of mound: upon wetting first mound (about 5 inches) with the alcohol alone", "experimental": "In the seventh test, active fire ant colonies were treated with methanol and then with a mixture of methanol plus trans-dichloroethylene. Additionally, an aqueous Diazinon® solution was applied to a targeted mound following application of the latter mixture. First, an active fire ant mound, approximately 5 inches in diameter, was treated with enough methanol to wet the surface of the mound. […] Then a solution of three parts methanol to one part trans-dichloroethylene was applied to the surface of a second fire ant mound approximately 8 inches in diameter. […] After five minutes, the second mound was pierced in several places with a steel shaft. A Diazinon® solution was then applied to the mound. At no time were ants observed exiting the second mound."}, "[4]": {"system": "fire ant colony", "assay": "Test 1: trans-dichloroethylene/vegetable oil mixture poured on fire ant colony in 2-gallon flowerpot", "type": "in vivo, Red Fire Ant", "experimental": "These tests were conducted on active fire ant mounds located primarily upon an acre tract of residential property in Lake Charles, La.\nIn the first test, a mixture of 1 part trans-dichloroethylene to 2 parts vegetable oil (liquid Crisco® brand vegetable oil) was used. A fire ant colony that had established itself within a 2-gallon flowerpot was treated with approximately 1 cup of a trans-dichloroethylene/vegetable oil mixture. The technique involved pouring the liquid mixture onto the surface of the targeted fire ant mound. Observations of fire ant activity were made upon application and following application of the mixture. Afterward, the contents of the infested flower pot were emptied upon a flat, ply-wood surface and dissected. The following results of individual fire ant activity within the treated soil were observed: […]"}, "[5]": {"system": "active fire ant mound", "assay": "General experimental method: knockout agent mixture then insecticide on fire ant mound, excavation of plugs", "type": "in vivo, Red Fire Ant", "conditions": "applied superficially to a fire ant mound", "source_text": "The experimental method used herein entailed first preparing a mixture of 1 part trans-dichloroethylene (knockout agent) and 2 parts vegetable oil (liquid Crisco® was the vegetable oil most often used in the test) and then applying the mixture to the surface of an active fire ant mound 12 inches or less in surface diameter. The oil with the knockout agent is preferably biodegradable and miscible with the knockout agent. Units of measure are in pints, with the mixture comprising approximately ½ pint trans-dichloroethylene for every pint of vegetable oil. Approximately one-quarter (¼) pint of the trans-dichloroethylene/vegetable oil mixture was applied to a fire-ant hill about 12-inches in surface diameter.\nThe next step entailed applying a suitable insecticide to the fire ant mound. The insecticide was a commercially available Diazinon® applied one of two forms onto a fire ant mound that had been treated with the trans-dichloroethylene mixture. […]\nFollowing all of these tests, the targeted fire ant colonies were excavated in the form of plugs. These “plugs” of excavated earth that had comprised the fire ant colony measured about 12″×12″×12. […] Hundreds, if not thousands, of dead individual worker ants, dead ant larvae and eggs were detected. […]"}},
  "note": "Like-named read-outs stand apart in the source and are kept apart here.",
  "data": [
    {"smiles": "CCO", "note": "[anhydrous ethanol, ethanol]", "values": [
      {"measurement": "knock out of fire ants within a targeted mound (conclusion)", "setting": "[1]", "value": "neither serves to knock out fire ants"}
    ]},
    {"smiles": "CC(C)O", "note": "[anhydrous isopropanol, isopropanol]", "values": [
      {"measurement": "knock out of fire ants within a targeted mound (conclusion)", "setting": "[2]", "value": "neither serves to knock out fire ants"}
    ]},
    {"smiles": "CO", "note": "[methanol]", "values": [
      {"measurement": "knock out of fire ants within a targeted mound (conclusion)", "setting": "[3]; in vivo", "value": "does not serve to knockout fire ants"},
      {"measurement": "fire ant activity upon surface of mound", "setting": "[3]", "value": "observed exiting the mound"},
      {"measurement": "fire ant activity upon surface of mound", "setting": "[3]; listed as pure ethanol", "value": "Significant fire ant activity"}
    ]},
    {"smiles": "Cl/C=C/Cl", "note": "[trans-dichloroethylene]", "values": [
      {"measurement": "toxicity to fire ants (conclusion)", "setting": "[4]; small dosages, short periods of exposure", "value": "not itself toxic to fire ants"},
      {"measurement": "evaporation from treated soil", "setting": "[4]; treated soil exposed to the open air", "value": "rapidly evaporates"},
      {"measurement": "incapacitation of individual insects in targeted fire ant mound", "setting": "[5]", "value": "completely incapacitated"}
    ]}
  ]
}
